Reference: patent publication US20260001875A1, “AMINOPYRIMIDINYL DERIVATIVES FOR THE TREATMENT OF PARKINSON'S DISEASE” (UNIVERSITY OF DUNDEE, priority 2022, published 2026)
Where two headings read alike, the source gives them in different places.

Key:
VHL and LRRK2 = molecular target: T1, VHL and LRRK2 (Homo sapiens, UniProt P40337+Q5S007); assay: NanoBRET ternary complex formation assay; format: binding
T1 construct: host or cells: HEK293 (digitonin-permeabilized), with purified labelled VCB added
Experimental: VCB was labeled with Bodipy 576/589 following protocol reported previously 76. Briefly, the VCB complex was mixed with Bodipy 576/589 NHS ester in a 20:1 molar ration and incubated at room temperature (protect from light) for 2 h in reaction buffer (0.1 M sodium phosphate, 75 mM KOAc, 2 mM DTT, pH 7.4). The reaction was quenched by diluting 10 times with reaction buffer and the unreacted dye was removed with a PD-10 MiniTrap desalting column (GE Healthcare) equilibrated with 100 mM BisTris pH 7.0, 100 mM NaCl, 1 mM DTT, pH 7. The eluted labeled protein solution was collected and concentrated with Pierce Concentrator, 3K MWCO (Thermo scientific).
Hek293 cells were transfected with LRRK2-NanoLuc vector (Promega, NV3401) for 24 h, harvested, and resuspended into OptiMEM media without phenol red (Life Technologies). The cells were then seeded into white 384-well plate (Corning3570) at a density of 6000 cells/well. […] Each well was added with NanoBRET NanoGlo Substrate (Promega, N2160) before performing the NanoBRET reading on PHERAstar (BMG LABTECH) plate reader equipped with a 450-nm bandpass filter (donor) and a 600-nm long pass filter (acceptor). […]

VHL = VHL (Homo sapiens, UniProt P40337); assay: NanoBRET VHL target engagement in HEK293 cells; format: binding; design: host or cells: HEK293; conditions: for IC50: read-out: IC50 VHL tracer displacement
Experimental: For VHL and LRRK2 target engagement experiments in live and permeabilized cells, the HEK293 cells were transfected with VHL-NanoLuc fusion vector (Promega, N275A) or LRRK2-NanoLuc fusion vector (Promega, NV3401) following Promega's protocol and seeded into white 384-well plate (Corning3570) at a density of 6000 cells/well. To measure NanoBRET in permeabilized cells, the cells were treated with 50 μg/mL digitonin (Sigma, D141), 125 nM VHL tracer/125 nM LRRK2 tracer, testing compounds at decreasing concentrations (12 concentrations with 2-fold serial dilution starting from 33 μM), and NanoBRET NanoGlo Substrate (Promega) at concentration recommended by the manufacturer's protocol. In the maximum signal control samples (DMSO control), DMSO was added instead of testing compounds. In the minimum signal control samples (no tracer control), DMSO and tracer dilution buffer were used to replace testing compounds and tracer separately. The filtered luminescence was measured within 10 min following addition of the substrate on a GloMax Discover microplate reader (Promega) or a PHERAstar (BMG LABTECH) plate reader equipped with a 450-nm bandpass filter (donor) and a 600-nm long pass filter (acceptor). To measure NanoBRET in live cells, the cells were treated with 250 nM VHL tracer/500 nM LRRK2 tracer, testing compounds at testing compounds at decreasing concentrations (12 concentrations with 2-fold serial dilution starting from 33 μM) and incubated at 37° C. in an incubator for 2 h. The plates were then cooled down and added with NanoBRET NanoGlo Substrate and Extracellular NanoLuc Inhibitor (Promega, N2160) before performing the same NanoBRET reading as the permeabilized mode on plate readers. NanoBRET ratio of each well was expressed in milliBRET according to the equation: mBRET=[(signal at […]/signal at 450 nM)−(signal at 610 nMno tracer control/signal at 450 nMno tracer control)]×1000. The fractional occupancy was calculated according to the equation: fractional occupancy=(mBRETtesting compound−mBRETno tracer control)/(mBRETDMSO control−mBRETno tracer control).

LRRK2 = LRRK2 (Homo sapiens, UniProt Q5S007); assay: NanoBRET-based ternary binding and cooperativity assay; design: fused on or other part: NanoLuc luciferase fused to LRRK2 as the BRET donor tag; conditions: permeabilized HEK293 cells, with VCB; read-out: IC50 LRRK2 engagement in the presence of VCB protein
Experimental: The HEK293 cells were transfected with LRRK2-NanoLuc fusion vector (Promega, NV3401) following Promega's protocol and seeded into white 384-well plate (Corning3570) at a density of 6000 cells/well. The cells were then treated with 50 μg/mL of digitonin, 125 nM of LRRK2 tracer, testing compounds at decreasing concentrations (11 concentrations with 2-fold serial dilution starting from 10 μM) or testing compounds and VCB mix (11 concentrations with 2-fold serial dilution starting from 10 μM compound for the compound. The first 6 concentrations of VCB start from 32 μM with 2-fold dilution, the last 5 concentrations of VCB keep at 1 μM), and NanoBRET NanoGlo Substrate (Promega) at concentration recommended by the manufacturer's protocol. In the maximum signal control samples (DMSO control), DMSO was added instead of testing compounds. In the minimum signal control samples (no tracer control), DMSO and LRRK2 tracer dilution buffer were used to replace testing compounds and LRRK2 tracer separately. The filtered luminescence was measured within 10 min following addition of the substrate on a PHERAstar (BMG LABTECH) plate reader equipped with a 450-nm bandpass filter (donor) and a 600-nm long pass filter (acceptor). The fractional occupancy was calculated according to the equation: fractional occupancy=(mBRETtesting compound−mBRETno tracer control)/(mBRETDMSO control−mBRETno tracer control).

Sequence of LRRK2 (Q5S007 whole entry, the tested form may be a part): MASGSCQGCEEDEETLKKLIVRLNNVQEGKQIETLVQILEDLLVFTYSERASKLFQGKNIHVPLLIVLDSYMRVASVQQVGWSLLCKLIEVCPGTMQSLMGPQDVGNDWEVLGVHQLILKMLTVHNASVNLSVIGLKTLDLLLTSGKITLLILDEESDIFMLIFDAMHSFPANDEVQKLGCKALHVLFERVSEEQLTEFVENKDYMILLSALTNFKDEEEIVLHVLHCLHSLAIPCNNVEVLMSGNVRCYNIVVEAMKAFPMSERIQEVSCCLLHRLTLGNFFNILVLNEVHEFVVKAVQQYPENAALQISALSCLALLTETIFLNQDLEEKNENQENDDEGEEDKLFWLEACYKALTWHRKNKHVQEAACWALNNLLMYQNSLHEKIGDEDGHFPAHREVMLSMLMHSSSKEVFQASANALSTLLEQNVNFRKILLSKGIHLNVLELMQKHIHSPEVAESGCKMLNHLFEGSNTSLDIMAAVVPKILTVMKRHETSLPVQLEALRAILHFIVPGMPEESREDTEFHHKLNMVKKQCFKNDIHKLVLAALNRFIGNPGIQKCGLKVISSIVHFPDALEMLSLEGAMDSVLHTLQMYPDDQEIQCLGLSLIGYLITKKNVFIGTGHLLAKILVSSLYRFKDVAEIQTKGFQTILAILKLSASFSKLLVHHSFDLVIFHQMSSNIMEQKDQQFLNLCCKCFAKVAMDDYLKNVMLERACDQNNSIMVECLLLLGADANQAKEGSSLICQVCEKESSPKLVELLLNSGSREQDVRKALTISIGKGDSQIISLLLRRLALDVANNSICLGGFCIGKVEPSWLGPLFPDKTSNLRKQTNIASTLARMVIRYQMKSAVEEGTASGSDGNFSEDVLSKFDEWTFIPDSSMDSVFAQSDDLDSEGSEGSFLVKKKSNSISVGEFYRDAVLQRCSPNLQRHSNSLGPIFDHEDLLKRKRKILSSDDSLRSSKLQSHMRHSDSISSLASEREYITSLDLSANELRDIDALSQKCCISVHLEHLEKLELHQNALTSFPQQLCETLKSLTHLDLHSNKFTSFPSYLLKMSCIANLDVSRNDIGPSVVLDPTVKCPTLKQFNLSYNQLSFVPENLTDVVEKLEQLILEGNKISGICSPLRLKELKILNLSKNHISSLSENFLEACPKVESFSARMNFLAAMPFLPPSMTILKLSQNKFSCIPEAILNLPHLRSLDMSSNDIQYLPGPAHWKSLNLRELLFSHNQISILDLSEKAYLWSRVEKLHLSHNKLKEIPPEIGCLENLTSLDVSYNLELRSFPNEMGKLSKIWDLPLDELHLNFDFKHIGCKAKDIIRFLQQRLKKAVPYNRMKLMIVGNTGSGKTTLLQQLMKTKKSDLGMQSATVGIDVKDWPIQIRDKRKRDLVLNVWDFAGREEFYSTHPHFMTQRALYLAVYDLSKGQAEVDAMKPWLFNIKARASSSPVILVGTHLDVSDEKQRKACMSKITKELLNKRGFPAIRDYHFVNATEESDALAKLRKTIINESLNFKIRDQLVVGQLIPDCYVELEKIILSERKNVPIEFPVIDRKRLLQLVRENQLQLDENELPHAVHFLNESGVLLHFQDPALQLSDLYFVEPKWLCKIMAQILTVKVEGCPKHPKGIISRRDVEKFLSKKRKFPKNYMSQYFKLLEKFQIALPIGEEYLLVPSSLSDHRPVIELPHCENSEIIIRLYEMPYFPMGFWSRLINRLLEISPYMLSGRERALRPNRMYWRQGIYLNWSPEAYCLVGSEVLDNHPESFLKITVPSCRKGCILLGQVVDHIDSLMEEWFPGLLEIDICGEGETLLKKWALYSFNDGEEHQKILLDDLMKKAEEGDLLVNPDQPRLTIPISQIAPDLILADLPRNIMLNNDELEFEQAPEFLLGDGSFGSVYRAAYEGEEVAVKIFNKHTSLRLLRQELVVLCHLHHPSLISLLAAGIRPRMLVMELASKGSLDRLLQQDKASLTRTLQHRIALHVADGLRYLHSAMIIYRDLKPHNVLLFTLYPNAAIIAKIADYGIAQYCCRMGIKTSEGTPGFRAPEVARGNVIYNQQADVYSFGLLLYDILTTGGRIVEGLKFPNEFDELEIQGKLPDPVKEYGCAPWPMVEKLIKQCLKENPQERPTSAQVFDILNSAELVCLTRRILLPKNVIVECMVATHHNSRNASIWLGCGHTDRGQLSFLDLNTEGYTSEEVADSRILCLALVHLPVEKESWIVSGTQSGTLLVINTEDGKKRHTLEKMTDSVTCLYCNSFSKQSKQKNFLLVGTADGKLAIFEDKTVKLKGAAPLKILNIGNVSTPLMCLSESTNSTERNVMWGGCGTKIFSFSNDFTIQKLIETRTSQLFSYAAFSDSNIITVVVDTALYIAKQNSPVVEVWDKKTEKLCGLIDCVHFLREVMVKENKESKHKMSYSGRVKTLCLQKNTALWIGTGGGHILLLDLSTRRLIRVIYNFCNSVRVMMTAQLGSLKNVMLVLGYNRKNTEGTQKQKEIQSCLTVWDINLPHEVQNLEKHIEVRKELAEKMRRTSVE
Sequence of VHL (P40337 whole entry, the tested form may be a part): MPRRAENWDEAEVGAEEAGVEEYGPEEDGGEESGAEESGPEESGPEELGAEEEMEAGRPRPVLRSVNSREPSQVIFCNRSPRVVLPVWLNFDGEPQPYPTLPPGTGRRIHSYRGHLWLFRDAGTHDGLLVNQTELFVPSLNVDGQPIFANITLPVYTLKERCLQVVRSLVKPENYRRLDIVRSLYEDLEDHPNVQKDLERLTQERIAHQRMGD
T1 sequence (Q5S007 whole entry, species assumed): as the sequence (Q5S007 whole entry, the tested form may be a part) above
T1 sequence (P40337 54-213 limits assumed, species assumed): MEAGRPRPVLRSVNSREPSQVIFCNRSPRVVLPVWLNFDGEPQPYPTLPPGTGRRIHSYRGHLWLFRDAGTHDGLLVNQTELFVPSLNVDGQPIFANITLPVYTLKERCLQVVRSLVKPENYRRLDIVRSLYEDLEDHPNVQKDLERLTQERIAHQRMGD
T1 sequence (Q15369 17-112 partner limits assumed, species assumed): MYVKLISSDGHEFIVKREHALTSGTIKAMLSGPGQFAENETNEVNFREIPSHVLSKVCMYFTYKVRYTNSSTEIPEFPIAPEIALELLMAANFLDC
T1 sequence (Q15370 1-104 partner limits assumed, species assumed): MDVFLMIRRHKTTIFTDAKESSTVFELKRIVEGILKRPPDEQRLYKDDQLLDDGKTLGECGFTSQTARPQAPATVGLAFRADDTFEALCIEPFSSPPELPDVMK

| Structure (SMILES) | ternary complex formation with VHL and LRRK2 (in words) (VHL and LRRK2) | IC50 (VHL; live HEK293 cells) [nM] | IC50 (VHL; permeabilized HEK293 cells) [nM] | IC50 ratio IC50, per/IC50, live (VHL engagement) (VHL; permeabilized vs live mode) | IC50 (LRRK2) [nM] | VHL tracer displacement (in words) (VHL; permeabilized HEK293 cells) |
| --- | --- | --- | --- | --- | --- | --- |
| CNc1nc(Nc2ccc(C(=O)N3CCN(C[C@H]4CC[C@H](CSC(C)(C)[C@H](NC(=O)C5(F)CC5)C(=O)N5C[C@@H](O)CC5C(=O)NCc5ccc(-c6scnc6C)cc5)CC4)CC3)cc2OC)ncc1Cl (stereo partly drawn) [Cis-XL01126, (2S,4S)-1-((R)-3-((((1r,4R)-4-((4-(4-((5-chloro-4-(methylamino)pyrimidin-2-yl)amino)-3-methoxybenzoyl)piperazin-1-yl)methyl)cyclohexyl)methyl)thio)-2-(1-fluorocyclopropane-1-carboxamido)-3-methylbutanoyl)-4-hydroxy-N-(4-(4-methylthiazol-5-yl)benzyl)pyrrolidine-2-carboxamide] | cannot form ternary complex | – | – | – | – | – |
| CNc1nc(Nc2ccc(C(=O)N3CCN(CCOCCOCCSC(C)(C)[C@H](NC(=O)C4(F)CC4)C(=O)N4C[C@H](O)C[C@H]4C(=O)NCc4ccc(-c5scnc5C)cc4)CC3)cc2OC)ncc1Cl [SD75, (2S,4R)-1-((R)-3-((2-(2-(2-(4-(4-((5-chloro-4-(methylamino)pyrimidin-2-yl)amino)-3-methoxybenzoyl)piperazin-1-yl)ethoxy)ethoxy)ethyl)thio)-2-(1-fluorocyclopropane-1-carboxamido)-3-methylbutanoyl)-4-hydroxy-N-(4-(4-methylthiazol-5-yl)benzyl)pyrrolidine-2-carboxamide] | – | 2500 | 1900 | 0.76 | 1400 | – |
| CNc1nc(Nc2ccc(C(=O)N3CCN(C[C@H]4CC[C@H](CSC(C)(C)[C@H](NC(=O)C5(F)CC5)C(=O)N5C[C@H](O)CC5C(=O)NCc5ccc(-c6scnc6C)cc5)CC4)CC3)cc2OC)ncc1Cl (stereo partly drawn) [XL01126, (2S,4R)-1-((R)-3-((((1R,4R)-4-((4-(4-((5-chloro-4-(methylamino)pyrimidin-2-yl)amino)-3-methoxybenzoyl)piperazin-1-yl)methyl)cyclohexyl)methyl)thio)-2-(1-fluorocyclopropane-1-carboxamido)-3-methylbutanoyl)-4-hydroxy-N-(4-(4-methylthiazol-5-yl)benzyl)pyrrolidine-2-carboxamide] | highest ternary complex | 10100 | – | – | 350 | poor displacement |
| CNc1nc(Nc2ccc(C(=O)N3CCN(C[C@H]4CC[C@@H](CSC(C)(C)[C@H](NC(=O)C5(F)CC5)C(=O)N5C[C@H](O)CC5C(=O)NCc5ccc(-c6scnc6C)cc5)CC4)CC3)cc2OC)ncc1Cl (stereo partly drawn) [XL01134] | – | 880 | 780 | – | 790 | – |
